IC50 data for 27 compounds are collected here from patent publication US20230145305A1, “COMPOUNDS USEFUL AS KINASE INHIBITORS” (Fochon Biosciences, Ltd., priority 2020, published 2023).

The subject of one assay is OCI-LY10 cells. Kind of assay: Cell proliferation assay (MTS) in OCI-LY10 cells. It is filed as cell-based. To be noted: Homo sapiens, OCI-Ly10, 72 h, read-out: OCI-LY10 IC50 (nM). The source says: MTS testing kit was purchased from Promega (Madison, Wis., USA). The RPMI-1640, Fetal bovine serum and Penicillin-Streptomycin were purchased from BI (Biological Industries, Beit Haemek, Israel). Dimethyl sulfoxide (DMSO) was purchased from Sigma (St. Louis., Mo., USA). […] To investigate whether a compound is able to inhibit the activity of BTK in cells, a mechanism-based assay using OCI-LY10 cells was developed. In this assay, inhibition of BTK was detected by the inhibition of OCI-LY10 cells proliferation. Cells were plated into 96-well plates at a density of 10000 cells/well. Plates were incubated at 37° C., with 5% CO2 for 4 h. […] Plates were incubated at 37° C., with 5% CO2 for 72 h. 20 μl MTS was added into each well and the plates were incubated at 37° C., with 5% CO2 for exactly 2 h. The absorbance was measured by a microplate reader at 490 nm. IC50 was calculated using GraphPad Prism 5.0 software. Select compounds prepared as described above were assayed according to the biological procedures described herein.
`COc1ccc(F)cc1C(=O)NCc1ccc(-c2nn(C3CCCC3)c3c(=O)[nH]nc(N)c23)cc1F` [Example 62, N-(4-(4-amino-1-cyclopentyl-7-oxo-6,7-dihydro-1H-pyrazolo[3,4-d]pyridazin-3-yl)-2-fluorobenzyl)-5-fluoro-2-methoxybenzamide]: the IC50 (usually the midpoint of a concentration-inhibition curve) came out at 1 nM.

The same assay, now with this note: Homo sapiens; inhibition of OCI-LY10 cells proliferation, 72 h incubation, MTS, absorbance at 490 nm; read-out: OCI-LY10 IC50.
Consider `COc1ccc(F)cc1C(=O)NCc1ccc(-n2c(=O)n(C3CCCC3)c3c(=O)[nH]nc(N)c32)cc1` [Example 60, N-(4-(7-amino-3-cyclopentyl-2,4-dioxo-2,3,4,5-tetrahydro-1H-imidazo[4,5-d]pyridazin-1-yl)benzyl)-5-fluoro-2-methoxybenzamide], for which the half-maximal inhibitory concentration (IC50) came to 30 nM. The same measure, in the same setting: the result for `COc1ncc(F)cc1C(=O)NCc1ccc(-c2nn(C3CCCC3)c3c(=O)[nH]nc(N)c23)cc1` [Example 61, N-(4-(4-amino-1-cyclopentyl-7-oxo-6,7-dihydro-1H-pyrazolo[3,4-d]pyridazin-3-yl)benzyl)-5-fluoro-2-methoxynicotinamide] reads 15 nM. The same measure, in the same setting: the result for `COc1ccc(F)cc1C(=O)NCc1ccc(-c2nn(C3CCCC3)c3c(=O)[nH]nc(N)c23)c(F)c1` [Example 63, N-(4-(4-amino-1-cyclopentyl-7-oxo-6,7-dihydro-1H-pyrazolo[3,4-d]pyridazin-3-yl)-3-fluorobenzyl)-5-fluoro-2-methoxybenzamide] reads 1 nM; that for `COc1ccc(F)cc1C(=O)NCc1ccc(-c2nn([C@H]3CCCC3(F)F)c3c(=O)[nH]nc(N)c23)cc1` [Example 64, (S)-N-(4-(4-amino-1-(2,2-difluorocyclopentyl)-7-oxo-6,7-dihydro-1H-pyrazolo[3,4-d]pyridazin-3-yl)benzyl)-5-fluoro-2-methoxybenzamide], 1 nM.

As for `COc1ccc(F)cc1C(=O)NCc1ccc(-c2nn(C3CCC3)c3c(=O)[nH]nc(N)c23)cc1` [Example 65, N-(4-(4-amino-1-cyclobutyl-7-oxo-6,7-dihydro-1H-pyrazolo[3,4-d]pyridazin-3-yl)benzyl)-5-fluoro-2-methoxybenzamide], the half-inhibitory concentration (IC50) is 1 nM. Consider `COc1ccc(F)cc1C(=O)NCc1ccc(-c2nn(C(C)(C)C)c3c(=O)[nH]nc(N)c23)cc1` [Example 66, N-(4-(4-amino-1-(tert-butyl)-7-oxo-6,7-dihydro-1H-pyrazolo[3,4-d]pyridazin-3-yl)benzyl)-5-fluoro-2-methoxybenzamide], for which the concentration for half-maximal inhibition (IC50) stood at 1 nM. Same read-out and setting: the result for `CCC(C)n1nc(-c2ccc(CNC(=O)c3cc(F)ccc3OC)cc2)c2c(N)n[nH]c(=O)c21` (stereo not drawn) [Example 67, N-(4-(4-amino-1-(sec-butyl)-7-oxo-6,7-dihydro-1H-pyrazolo[3,4-d]pyridazin-3-yl)benzyl)-5-fluoro-2-methoxybenzamide] reads 1 nM; that for `COc1ccc(F)cc1C(=O)NCc1ccc(-c2nn(C(C)C)c3c(=O)[nH]nc(N)c23)cc1` [Example 68, N-(4-(4-amino-1-isopropyl-7-oxo-6,7-dihydro-1H-pyrazolo[3,4-d]pyridazin-3-yl)benzyl)-5-fluoro-2-methoxybenzamide], 2 nM. Still for that read-out and setting: under `COc1ccc(F)cc1C(=O)NCc1ccc(-c2nn(C(C)C(C)C)c3c(=O)[nH]nc(N)c23)cc1` (stereo not drawn) [Example 69, N-(4-(4-amino-1-(3-methylbutan-2-yl)-7-oxo-6,7-dihydro-1H-pyrazolo[3,4-d]pyridazin-3-yl)benzyl)-5-fluoro-2-methoxybenzamide] stands 5 nM.

For `COc1ccc(F)cc1C(=O)NCc1ccc(-c2nn(C(C)C(C)(C)C)c3c(=O)[nH]nc(N)c23)cc1` (stereo not drawn) [Example 70, N-(4-(4-amino-1-(3,3-dimethylbutan-2-yl)-7-oxo-6,7-dihydro-1H-pyrazolo[3,4-d]pyridazin-3-yl)benzyl)-5-fluoro-2-methoxybenzamide], the IC50 stood at 1 nM. Still for that read-out and setting: under `COc1ncc(F)cc1C(=O)NCc1ccc(-c2cn(C3CCCC3)c3c(=O)[nH]nc(N)c23)cc1` [Example 71, N-(4-(4-amino-1-cyclopentyl-7-oxo-6,7-dihydro-1H-pyrrolo[2,3-d]pyridazin-3-yl)benzyl)-5-fluoro-2-methoxynicotinamide] stands 23 nM.

On to `COc1ccc(F)cc1C(=O)NCc1ccc(-c2nn([C@@H]3CCCC3(F)F)c3c(=O)[nH]nc(N)c23)cc1` [Example 72, (R)-N-(4-(4-amino-1-(2,2-difluorocyclopentyl)-7-oxo-6,7-dihydro-1H-pyrazolo[3,4-d]pyridazin-3-yl)benzyl)-5-fluoro-2-methoxybenzamide], for which the half-maximal inhibitory concentration (IC50) stood at 1 nM. Still for that read-out and setting: the result for `COc1ccc(F)cc1C(=O)NCc1ccc(-c2nn(C3(C)CCC3)c3c(=O)[nH]nc(N)c23)cc1` [Example 73, N-(4-(4-amino-1-(1-methylcyclobutyl)-7-oxo-6,7-dihydro-1H-pyrazolo[3,4-d]pyridazin-3-yl)benzyl)-5-fluoro-2-methoxybenzamide] reads 1 nM. The same measure, in the same setting: the result for `COc1ccc(F)cc1C(=O)NCc1ccc(-c2nn(C3(C)CC3)c3c(=O)[nH]nc(N)c23)cc1` [Example 74, N-(4-(4-amino-1-(1-methylcyclopropyl)-7-oxo-6,7-dihydro-1H-pyrazolo[3,4-d]pyridazin-3-yl)benzyl)-5-fluoro-2-methoxybenzamide] reads 1 nM; that for `COc1ccc(F)cc1C(=O)NCc1ccc(-c2nn(C(C)CF)c3c(=O)[nH]nc(N)c23)cc1` (stereo not drawn) [Example 75, N-(4-(4-amino-1-(1-fluoropropan-2-yl)-7-oxo-6,7-dihydro-1H-pyrazolo[3,4-d]pyridazin-3-yl)benzyl)-5-fluoro-2-methoxybenzamide], 12 nM. In the case of `COc1ccc(F)cc1C(=O)NCc1ccc(-c2nn(C(C)C(F)F)c3c(=O)[nH]nc(N)c23)cc1` (stereo not drawn) [Example 76, N-(4-(4-amino-1-(1,1-difluoropropan-2-yl)-7-oxo-6,7-dihydro-1H-pyrazolo [3,4-d]pyridazin-3-yl)benzyl)-5-fluoro-2-methoxybenzamide], the IC50 was determined as 1 nM. Same read-out and setting: the result for `COc1ccc(F)cc1C(=O)NCc1ccc(-c2nn([C@H](C)C3CC3)c3c(=O)[nH]nc(N)c23)cc1` [Example 77a, (R)-N-(4-(4-amino-1-(1-cyclopropylethyl)-7-oxo-6,7-dihydro-1H-pyrazolo[3,4-d]pyridazin-3-yl)benzyl)-5-fluoro-2-methoxybenzamide] reads 1 nM; that for `COc1ccc(F)cc1C(=O)NCc1ccc(-c2nn([C@@H](C)C3CC3)c3c(=O)[nH]nc(N)c23)cc1` [Example 77b, (S)-N-(4-(4-amino-1-(1-cyclopropylethyl)-7-oxo-6,7-dihydro-1H-pyrazolo[3,4-d]pyridazin-3-yl)benzyl)-5-fluoro-2-methoxybenzamide], 1 nM; that for `COc1ccc(F)cc1C(=O)NCc1ccc(-c2nn(C(CO)C(F)(F)F)c3c(=O)[nH]nc(N)c23)cc1` (stereo not drawn) [Example 78, N-(4-(4-amino-7-oxo-1-(1,1,1-trifluoro-3-hydroxypropan-2-yl)-6,7-dihydro-1H-pyrazolo[3,4-d]pyridazin-3-yl)benzyl)-5-fluoro-2-methoxybenzamide], 26 nM. Consider `COc1cc(F)c(F)cc1C(=O)NCc1ccc(-c2cn(C3CCCC3)c3c(=O)[nH]nc(N)c23)cc1` [Example 79, N-(4-(4-amino-1-cyclopentyl-7-oxo-6,7-dihydro-1H-pyrrolo[2,3-d]pyridazin-3-yl)benzyl)-4,5-difluoro-2-methoxybenzamide], for which the 50% inhibitory concentration (IC50) turned out to be 50 nM.

On to `COc1ccc(F)cc1C(=O)NCc1ccc(-c2nn([C@H]3CCC[C@@H]3F)c3c(=O)[nH]nc(N)c23)cc1` [Example 80, N-(4-(4-amino-1-((1S,2S)-2-fluorocyclopentyl)-7-oxo-6,7-dihydro-1H-pyrazolo[3,4-d]pyridazin-3-yl)benzyl)-5-fluoro-2-methoxybenzamide], for which the IC50 is 1 nM.

`COc1ccc(F)cc1C(=O)NCc1ccc(-c2nn(C3(CF)CC3)c3c(=O)[nH]nc(N)c23)cc1` [Example 82, N-(4-(4-amino-1-(1-(fluoromethyl)cyclopropyl)-7-oxo-6,7-dihydro-1H-pyrazolo[3,4-d]pyridazin-3-yl)benzyl)-5-fluoro-2-methoxybenzamide]: the IC50 worked out at 3 nM.

For `COc1ccc(F)cc1C(=O)NCc1ccc(-c2nn(C(C)(C)CF)c3c(=O)[nH]nc(N)c23)cc1` [Example 83, N-(4-(4-amino-1-(1-fluoro-2-methylpropan-2-yl)-7-oxo-6,7-dihydro-1H-pyrazolo[3,4-d]pyridazin-3-yl)benzyl)-5-fluoro-2-methoxybenzamide], the IC50 amounted to 46 nM.

For the compound `COc1ccc(F)cc1C(=O)NCc1ccc(-c2nn(C3(C(F)F)CC3)c3c(=O)[nH]nc(N)c23)cc1` [Example 84, N-(4-(4-amino-1-(1-(difluoromethyl)cyclopropyl)-7-oxo-6,7-dihydro-1H-pyrazolo[3,4-d]pyridazin-3-yl)benzyl)-5-fluoro-2-methoxybenzamide], the IC50 stood at 4 nM. Still for that read-out and setting: the result for `COc1ccc(F)cc1C(=O)NCc1ccc(-c2nn(C(C)(C)C(F)F)c3c(=O)[nH]nc(N)c23)cc1` [Example 85, N-(4-(4-amino-1-(1,1-difluoro-2-methylpropan-2-yl)-7-oxo-6,7-dihydro-1H-pyrazolo[3,4-d]pyridazin-3-yl)benzyl)-5-fluoro-2-methoxybenzamide] reads 18 nM; that for `COc1ccc(F)cc1C(=O)NCc1ccc(-n2nc(C3CCCO3)c3c(=O)[nH]nc(N)c32)cc1` (stereo not drawn) [Example 86, N-(4-(7-amino-4-oxo-3-(tetrahydrofuran-2-yl)-4,5-dihydro-1H-pyrazolo[3,4-d]pyridazin-1-yl)benzyl)-5-fluoro-2-methoxybenzamide], 90 nM.
